Measured values as given in PMC12852734, “Design of precision therapeutics for a CKD risk allele by targeting Shroom3-Rock interaction” (Nature Communications, 2025).

Tests used:
ROCK1 [1] = biological target: T1, ROCK1 (Homo sapiens, UniProt Q13464); assay: anti-V5 co-immunoprecipitation of SHROOM3-ROCK1 from treated WT-Sh3 HEK-293T cells; format: cell-based; design: with SHROOM3
Target sequence in this assay (Q13464 2-1354): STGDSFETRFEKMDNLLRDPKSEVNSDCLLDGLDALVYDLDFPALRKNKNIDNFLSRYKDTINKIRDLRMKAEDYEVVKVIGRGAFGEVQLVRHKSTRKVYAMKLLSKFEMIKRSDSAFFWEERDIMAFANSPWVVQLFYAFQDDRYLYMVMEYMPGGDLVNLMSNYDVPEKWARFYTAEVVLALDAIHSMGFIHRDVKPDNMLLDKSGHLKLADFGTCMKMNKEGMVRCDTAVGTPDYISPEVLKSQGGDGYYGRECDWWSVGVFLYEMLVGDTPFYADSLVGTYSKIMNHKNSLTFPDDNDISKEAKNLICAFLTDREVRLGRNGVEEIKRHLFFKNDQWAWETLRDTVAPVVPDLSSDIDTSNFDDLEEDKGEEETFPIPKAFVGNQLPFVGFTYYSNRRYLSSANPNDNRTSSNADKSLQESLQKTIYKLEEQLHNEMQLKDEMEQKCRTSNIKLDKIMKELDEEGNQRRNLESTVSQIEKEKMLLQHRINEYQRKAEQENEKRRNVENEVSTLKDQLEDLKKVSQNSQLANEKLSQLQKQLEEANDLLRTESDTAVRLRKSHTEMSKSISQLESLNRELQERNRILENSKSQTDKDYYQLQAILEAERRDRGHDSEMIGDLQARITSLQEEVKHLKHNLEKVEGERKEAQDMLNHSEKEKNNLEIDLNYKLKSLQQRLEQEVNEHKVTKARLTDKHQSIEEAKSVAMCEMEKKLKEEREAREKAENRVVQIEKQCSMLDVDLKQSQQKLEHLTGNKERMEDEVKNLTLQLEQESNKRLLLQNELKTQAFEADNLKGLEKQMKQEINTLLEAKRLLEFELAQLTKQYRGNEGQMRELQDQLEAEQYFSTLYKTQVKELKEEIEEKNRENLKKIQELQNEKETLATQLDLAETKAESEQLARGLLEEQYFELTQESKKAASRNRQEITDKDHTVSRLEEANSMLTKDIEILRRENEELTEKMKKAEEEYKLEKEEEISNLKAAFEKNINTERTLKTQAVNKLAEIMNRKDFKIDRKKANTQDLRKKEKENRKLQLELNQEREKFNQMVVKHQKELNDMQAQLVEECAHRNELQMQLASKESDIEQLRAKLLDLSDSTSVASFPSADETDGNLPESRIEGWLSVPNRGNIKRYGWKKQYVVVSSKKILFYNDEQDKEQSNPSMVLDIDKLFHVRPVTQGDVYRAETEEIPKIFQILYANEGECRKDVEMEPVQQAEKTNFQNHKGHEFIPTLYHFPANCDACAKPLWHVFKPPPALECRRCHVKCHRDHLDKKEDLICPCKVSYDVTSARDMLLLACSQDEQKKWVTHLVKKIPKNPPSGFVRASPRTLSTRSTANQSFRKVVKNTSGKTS
Target sequence in this assay (Q8TF72 whole entry partner): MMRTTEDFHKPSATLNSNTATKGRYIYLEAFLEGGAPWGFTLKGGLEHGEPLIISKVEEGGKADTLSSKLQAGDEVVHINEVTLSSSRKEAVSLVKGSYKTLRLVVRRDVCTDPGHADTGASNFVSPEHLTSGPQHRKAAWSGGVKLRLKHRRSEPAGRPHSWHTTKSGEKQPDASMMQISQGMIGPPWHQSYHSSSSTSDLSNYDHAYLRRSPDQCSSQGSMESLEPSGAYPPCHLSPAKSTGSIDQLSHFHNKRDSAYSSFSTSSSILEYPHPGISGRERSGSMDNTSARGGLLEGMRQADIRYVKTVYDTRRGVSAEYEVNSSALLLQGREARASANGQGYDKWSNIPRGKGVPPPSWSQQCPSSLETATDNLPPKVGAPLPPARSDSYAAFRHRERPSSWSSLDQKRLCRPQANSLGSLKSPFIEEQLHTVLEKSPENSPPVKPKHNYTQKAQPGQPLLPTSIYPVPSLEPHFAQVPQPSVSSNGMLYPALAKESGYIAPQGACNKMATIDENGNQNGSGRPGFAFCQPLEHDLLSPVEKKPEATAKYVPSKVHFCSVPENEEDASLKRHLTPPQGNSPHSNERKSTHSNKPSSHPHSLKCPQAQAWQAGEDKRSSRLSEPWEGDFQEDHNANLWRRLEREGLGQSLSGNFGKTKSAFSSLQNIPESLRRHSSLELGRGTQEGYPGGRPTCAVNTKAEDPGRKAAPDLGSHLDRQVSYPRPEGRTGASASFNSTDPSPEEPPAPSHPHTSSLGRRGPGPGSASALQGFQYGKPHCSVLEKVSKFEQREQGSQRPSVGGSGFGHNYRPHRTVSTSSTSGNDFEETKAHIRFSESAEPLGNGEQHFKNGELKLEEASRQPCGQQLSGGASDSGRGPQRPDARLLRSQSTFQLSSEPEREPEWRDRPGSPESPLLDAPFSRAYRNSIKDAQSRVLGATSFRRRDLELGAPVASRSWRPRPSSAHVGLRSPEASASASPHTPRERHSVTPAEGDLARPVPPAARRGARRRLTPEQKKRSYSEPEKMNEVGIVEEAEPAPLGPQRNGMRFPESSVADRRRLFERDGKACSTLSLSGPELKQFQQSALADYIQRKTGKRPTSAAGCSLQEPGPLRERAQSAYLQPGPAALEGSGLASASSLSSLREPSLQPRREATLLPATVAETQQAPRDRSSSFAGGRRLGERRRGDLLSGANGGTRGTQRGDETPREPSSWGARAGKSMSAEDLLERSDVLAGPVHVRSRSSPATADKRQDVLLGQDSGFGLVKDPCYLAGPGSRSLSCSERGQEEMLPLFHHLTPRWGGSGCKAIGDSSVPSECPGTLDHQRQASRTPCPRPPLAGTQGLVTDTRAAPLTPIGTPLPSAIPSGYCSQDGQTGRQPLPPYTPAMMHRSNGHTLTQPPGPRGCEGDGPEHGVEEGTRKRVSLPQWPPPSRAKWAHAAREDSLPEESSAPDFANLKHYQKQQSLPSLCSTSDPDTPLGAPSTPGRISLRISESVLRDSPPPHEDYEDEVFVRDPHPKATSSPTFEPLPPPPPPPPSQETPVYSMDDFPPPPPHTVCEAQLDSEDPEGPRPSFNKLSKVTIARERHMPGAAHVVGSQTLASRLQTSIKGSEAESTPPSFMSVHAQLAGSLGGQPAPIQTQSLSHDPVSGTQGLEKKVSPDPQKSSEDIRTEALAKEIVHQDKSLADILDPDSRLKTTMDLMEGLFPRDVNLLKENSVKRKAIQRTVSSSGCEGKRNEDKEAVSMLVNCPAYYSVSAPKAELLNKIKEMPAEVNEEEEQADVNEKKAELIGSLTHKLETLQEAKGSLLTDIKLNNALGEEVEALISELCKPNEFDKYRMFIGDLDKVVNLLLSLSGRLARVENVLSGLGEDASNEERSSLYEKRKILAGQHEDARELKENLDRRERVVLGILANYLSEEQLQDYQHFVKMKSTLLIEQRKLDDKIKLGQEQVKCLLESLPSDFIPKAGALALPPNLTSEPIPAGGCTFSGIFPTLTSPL

ROCK1 [2] = biological target: T1, ROCK1
Target sequence in this assay (Q13464 2-1354): as the sequence (Q13464 2-1354) above

Structure (SMILES)	anti-V5 co-immunoprecipitation of SHROOM3-ROCK1 from treated WT-Sh3 HEK-293T cel (ROCK1 [1])	kinase hot spot assay in the absence of SHROOM3 (Fig. S7j) (ROCK1 [2])
F[B-](F)(F)c1ccc(C2NC(=S)NC3=C2CCc2ccccc23)cc1 (centres unmarked) [D4G, potassium trifluoro (4-(2-thioxo-1,2,3,4,5,6-hexahydrobenzo [h]quinazolin-4-yl)phenyl) borate]	the interaction of SHROOM3 with ROCK1 was diminished with D4G-treatment vs DMSO-treatment in WT-Sh3 overexpressing HEK-293T	
O=c1[nH]ccc2c(S(=O)(=O)N3CCCNCC3)cccc12 [HF, Hydroxy Fasudil]		HF inhibited Rock1, Rock2 (as expected), but showed significant off-target kinase inhibition (except Fyn)
